Patent publication US20250339531A1, “DUX4 POLYPEPTIDES AND NUCLEIC ACIDS FOR TREATING INFLAMMATORY AND AUTOIMMUNE CONDITIONS” (Fred Hutchinson Cancer Center, priority 2021, published 2025)
Entries after “also recorded” stand apart in the source; their conditions may differ. Where a SMILES comes first, the peptide text is derived from it. The star is where a group is joined. Cbz = O=C(OCc1ccccc1)*

Key:
[1] = test system: MHC-I, PSMB8, PSMB9, and PSMB10; assay: Immunoblot of IFNG-induced MHC-I and immunoproteasome protein in MB135 myoblasts treated with inhibitors; type: cell-based, human; details: MB135iDUX4 cells, data not shown
HLA-E = assay: Immunoblot of non-canonical MHC class I HLA-E; type: cell-based, human; details: MB135iDUX4 cells
Method: (§1) Protein samples were harvested in RIPA buffer [150 mM NaCl, 1% NP-40, 0.5% Na-deocycholate, 1% SDS, 25 mM Tris-HCl pH7.4] supplemented with protease and phosphatase inhibitor tablets (Pierce), followed by sonication in Diagenode Bioruptor. Lysate was cleared by centrifugation at 16000×g and quantified using a Pierce BCA assay (Thermo Fisher Scientific). Samples were run on NuPAGE precast polyacrylamide gels (Invitrogen) and transferred to PVDF membrane. Membranes were blocked in PBS containing 0.1% Tween-20 and 5% non-fat dry milk before overnight incubation at 4° C. with primary antibodies (see resource table for a list of antibodies used in this study). Membranes were incubated with horseradish peroxidase-conjugated secondary antibodies for 1 hour at room temperature and SuperSignal chemiluminescent substrate (Thermo Scientific) was used for detection on film with a Mini-medical 90 processor. Membranes were stripped with Restore Western Blot Stripping Buffer (Pierce).

[2] = test system: MHC-I, PSMB8, PSMB9, and PSMB10; assay: Immunoblot of IFNG-induced MHC-I and immunoproteasome protein in MB135 myoblasts treated with inhibitors; type: cell-based, human; details: MB135 myoblasts without DUX4 induction, agent then IFNG 16 h; 4EGI-1 at 50 uM
Method: To test if mTOR inactivation was sufficient to block MHC-I and immunoproteasome protein levels in the absence of DUX4, parental MB135 myoblasts were treated with mTOR inhibitors everolimus or Torin2. Everolimus is a second-generation rapamycin analog with binding specificity for mTORC1. […] To further validate the role of 4EBP1 in blocking MHC-I and immunoproteasome protein expression, MB135 cells were treated with 4EGI-1, a small molecule that pharmacologically mimics 4EBP function and inhibits eIF4E.
as §1

[3] = test system: interferon-stimulated genes IFIH1, ISG20, CXCL9, and CD74; assay: IFNG induction of interferon-stimulated genes, RT-qPCR in MB135 cells with doxycycline-inducible transgenes; type: cell-based, human; details: MB135 cells, doxycycline-induced transgene, continuous protocol, IFNG 16 h
Method: (§2) All myoblast experiments were conducted in immortalized MB135 or MB200 myoblast cell lines (isolated from a control or FSHD2 subject, respectively cultured in Ham's F-10 Nutrient Mix (Gibco) supplemented with 15% fetal bovine serum (Hyclone), 100 U/100 μg/ml penicillin/streptomycin (Gibco), 1 μM dexamethasone (Sigma), and 10 ng/ml recombinant human basic fibroblast growth factor (PeproTech). To differentiate the myoblasts to myotubes, media was changed to DMEM supplemented with 10 μg/ml insulin (Sigma) and 10 μg/ml transferrin (Sigma). Cell lines containing doxycycline-inducible transgenes were additionally cultured with 2 μg/mL puromycin (Sigma). Transgenes were induced with 1 μg/mL of doxycycline (Sigma) for 4 hours prior to other treatments for a total of 20 hrs. The Kitra-SRS cells (RRID:CVCL_YI69) were provided by Dr. H. Otani and Osaka University (Nakai et al., 2019) and were cultured in DMEM supplemented with 10% fetal bovine serum (Hyclone) and 100 U/100 μg/ml penicillin/streptomycin (Gibco). Biological replicates consisted of independent but parallel experiments, such as simultaneously stimulating three cell culture plates with IFNγ. Technical replicates consisted of repeat measurements of the same biological sample, such as loading the same biological sample in triplicate for analysis by RT-qPCR.
(§3) Myoblasts were transfected with either (final concentrations) 10 μM 2′,3′-cGAMP (Sigma Aldrich), 2 μg/mL poly(I:C) (Invitrogen), or 1 μg/mL 3′ppp-dsRNA RIG-I ligand (Dan Stetson Lab, UW) using Lipofectamine 2000 according to manufacturer's protocol, or were stimulated with 1000U IFNβ (PeproTech) or 200 ng/ml IFNγ (R+D Systems) by addition directly to cell culture medium. After 16 hours of immune stimulation, RNA was collected from cells using the NucleoSpin RNA Kit (Macherey-Nagel) according to manufacturer's instructions. RNA samples were quantified by nanodrop and 1 μg of RNA per sample was treated with DNase I Amplification Grade (Thermo Fisher), and then synthesized into cDNA using the Superscript IV First-Strand Synthesis System, including oligo dT primers (Invitrogen). qPCR was run in 384-well plates on an Applied Biosystems QuantStudio 6 Flex Real-Time PCR System (ABI) and analyzed in Microsoft Excel.

[4] = test system: MHC class I proteins (HLA-A/B/C); assay: Immunoblot of IFNG-induced MHC class I protein, continuous or pulsed protocol, MB135 myoblasts; type: cell-based, human; details: MB135 cells; for suppression of IFNG-induced MHC class I protein, pulsed protocol: 4 h doxycycline pulse, IFNG added later for 16 h; for suppression of IFNG-induced MHC class I protein, continuous protocol: doxycycline 20 h, IFNG last 16 h
Method: (§4) In the “continuous” protocol (similar to the experiments shown in the prior FIGS. 1, 2, 4, 5, and 6), doxycycline is added to induce DUX4 expression at time 0 and four hours later IFNG is added for an additional 16 hours, resulting in 20 hours of continuous DUX4 induction with the last 16 hrs exposed to IFNG.
(§5) In the “pulsed” protocol, doxycycline is added at time 0 to induce DUX4 expression, but after four hours the media is changed to remove the doxycycline, resulting in a pulse of DUX4 mRNA and protein sufficient to induce DUX4 target gene expression (see Resnick et al., Cell Rep. 2019 Nov. 12; 29(7):1812-1820.e5). IFNG is added at 28 hours for a period of 16 hours prior to harvesting the cells. […] This difference is not likely to be due to different amounts of the DUX4 and mutant DUX4 proteins because at the time of harvest both DUX4 and the F67A mutant DUX4 protein levels have declined to similarly low amounts relative to the continuous protocol, but could be due to the activation of DUX4 target genes by the full-length DUX4 since the H3.X/Y proteins show persistent expression in the pulsed protocol.
as §1

H3.X/Y = assay: Immunoblot of DUX4 target H3.X/Y proteins; type: cell-based, human; details: MB135 cells, continuous or pulsed protocol
Method: as §1

[5] = test system: de novo protein synthesis; assay: [35S]-methionine/cysteine metabolic labeling of nascent protein synthesis; type: cell-based; details: human myoblasts, 20-92 h after 4 h doxycycline pulse
Method: Cells were treated with and without a 4-hour pulse of doxycycline. Eight hours prior to harvest, cells were incubated in DMEM depleted for methionine and cysteine (Gibco) supplemented with 90 microcurie 35S-methionine/cysteine (Perkin Elmer) and 50 ng/ml […] (R&D Systems). Protein samples were harvested in RIPA buffer [150 mM NaCl, 1% NP-40, 0.5% Na-deocycholate, 1% SDS, 25 mM Tris-HCl pH7.4] supplemented with protease and phosphatase inhibitor tablets (Pierce), followed by sonication in Diagenode Bioruptor. Lysate was cleared by centrifugation at 16000×g and quantified using a Pierce BCA assay (Thermo Scientific). Samples were run on NuPAGE precast polyacrylamide gels (Invitrogen). Gels were stained with InstantBlue Coomassie (Abcam) following manufacturer protocol, placed on whatman paper, wrapped in plastic wrap, and dried. Gels were exposed to phosphor screen, imaged on Typhoon Trio imager, and analyzed with ImageQuant.

ZSCAN4 = assay: Activation of DUX4 target gene ZSCAN4, RT-qPCR; type: cell-based, human; details: MB135 cells ± doxycycline
Method: as §2, §3

[6] = test system: immunoproteasome subunits PSMB8, PSMB9, and PSMB10; assay: Immunoblot of IFNG-induced immunoproteasome subunits; type: cell-based, human; details: MB135 cells; for suppression of IFNG-induced immunoproteasome subunit protein, pulsed protocol: 4 h doxycycline pulse, later IFNG 16 h; for suppression of IFNG-induced immunoproteasome subunit protein, continuous protocol: doxycycline 20 h, IFNG last 16 h
Method: as §4, §5, §1

ISG induction by IFNG = assay: RNA-seq of IFNG-induced genes in MB135 cells; type: cell-based, human; details: genes induced by IFNG (log 2 fold-change >3), doxycycline + IFNG
Method: RNA was extracted as described above from untreated, doxycycline-treated, IFNγ-treated, or doxycycline- and IFNγ-treated samples. RNA was submitted to the Fred Hutchinson Cancer Research Center Genomics Core for library preparation using the TruSeq3 Stranded mRNA kit (Illumina) followed by size and quality analysis by Tapestation (Agilent). Libraries were sequenced on a NextSeq P2-100 (Illumina).
Sequencing analysis was performed using R version 4.0.3 (R Core Team, 2020). Sequencing reads were trimmed using Trimmomatic (version 0.39) (Bolger et al., 2014, Trimmomatic: a flexible trimmer for Illumina sequence data. Bioinformatics 30, 2114-2120), and aligned to the Homo sapiens GRCh38 reference genome with the Rsubread aligner (Liao et al., 2019, The R package Rsubread is easier, faster, cheaper and better for alignment and quantification of RNA sequencing reads. Nucleic Acids Res 47, e47). Gene counts were analyzed using featureCounts (v2.0.1) (Liao et al., 2019, supra) and the Gencode v35 annotation file. Normalization and differential expression analysis were done with DESeq2 (v1.26.0) (Love et al., 2014, Moderated estimation of fold change and dispersion for RNA-seq data with DESeq2. Genome Biol 15, 550).

Compound | rescue of post-transcriptional suppression after a pulse of DUX4 [1] | effect on IFNG-induced HLA-E protein (HLA-E) | effect on IFNG-induced MHC-I and immunoproteasome protein in the absence of DUX4 [2] | suppression of IFNG induction of ISGs (IFIH1, ISG20, CXCL9, CD74) [3] | suppression of IFNG induction of ISGs (IFIH1, ISG20, CXCL9, CD74) ([3]; listed as DUX4-F67A) | suppression of IFNG-induced MHC class I protein, pulsed protocol ([4]; listed as DUX4(F67A)) | suppression of IFNG-induced MHC class I protein, pulsed protocol ([4]; listed as DUX4-F67A) | suppression of IFNG-induced MHC class I protein, pulsed protocol ([4]; listed as F67A mutant) | suppression of IFNG-induced MHC class I protein, continuous protocol ([4]; listed as DUX4(F67A)) | suppression of IFNG-induced MHC class I protein, continuous protocol ([4]; listed as DUX4-F67A) | induction of DUX4 target H3.X/Y proteins (H3.X/Y) | nascent protein synthesis by 35S labeling [5] | transcriptional activation of DUX4 target gene ZSCAN4 (ZSCAN4) | transcriptional activation of DUX4 target gene ZSCAN4 (ZSCAN4; listed as DUX4-F67A) | suppression of IFNG-induced immunoproteasome subunit protein, pulsed protocol ([6]; listed as DUX4(F67A)) | suppression of IFNG-induced immunoproteasome subunit protein, pulsed protocol ([6]; listed as DUX4 F67A) | suppression of IFNG-induced immunoproteasome subunit protein, continuous protocol ([6]; listed as DUX4(F67A)) | suppression of IFNG-induced immunoproteasome subunit protein, continuous protocol ([6]; listed as DUX4 F67A) | IFNG-induced genes whose induction was suppressed more than 2-fold (percent) (ISG induction by IFNG) [%] | IFNG-induced genes whose induction was suppressed more than 4-fold (percent) (ISG induction by IFNG) [%]
CO/C1=C\C(C)=C\[C@@H](C)[C@@H](O)[C@@H](C)C/C(C)=C/C=C/[C@H](OC)[C@@H]([C@@H](C)[C@@H](O)[C@H](C)[C@@]2(O)C[C@@H](O)[C@H](C)[C@@H](C(C)C)O2)OC1=O [Bafilomycin] | did not rescue post-transcriptional suppression | – | – | – | – | – | – | – | – | – | – | – | – | – | – | – | – | – | – | –
CC(C)C[C@@H](C=O)NC(=O)[C@H](CC(C)C)NC(=O)[C@H](CC(C)C)NC(=O)OCc1ccccc1 [MG132] (Cbz-Leu-Leu-Leu-aldehyde) | did not rescue post-transcriptional suppression | stable expression of HLA-E protein | MHC class I induction, but not HLA-E is blocked | – | – | – | – | – | – | – | – | – | – | – | – | – | – | – | – | –
iDUX4-F67A: DUX4 with phenylalanine to alanine mutation in first homeodomain preventing DNA binding, SEQ ID NOS: 6-7 | – | – | – | sufficient to block IFNG-induced ISG expression; also recorded: still suppressed ISG induction by IFNG | fully suppresses the ISG response to IFNG | protein levels were completely rescued | does not suppress MHC class I in the pulse protocol | does not suppress MHC class I in the pulsed protocol | suppressed IFNG-induced MHC-I and the immunoproteasome expression | suppress the IFNG induction of MHC class I expression; also recorded: inhibits MHC class I proteins in only the continuous protocol | does not induce expression of the DUX4-regulated H3.X/Y | did not suppress protein translation; also recorded: no significant change | did not activate ZSCAN4 | prevents the transcriptional activation of DUX4 regulated genes | protein levels were completely rescued; also recorded: neither suppression of PSMB9 or altered 4EBP1 phosphorylation was observed | does not inhibit at all in the pulsed protocol | suppressed IFNG-induced MHC-I and the immunoproteasome expression | only partially inhibits the IFNG induction of PSMB9 and PSMB10 in the continuous protocol | 70 | 41
